The source made the active and inactive calls. No cut-off for these calls is given here.
Legend:
CWR22R = experiment: Antiproliferative activity against human 22Rv1 cells assessed as reduction in cell viability; type: functional, cell-based
KM12 = experiment: Growth inhibition of human KM12 cells assessed as cell growth inhibition incubated for 48 hrs by sulforhodamine B assay; type: functional; details: KM12, 48 h
MOLT-4 = experiment: Growth inhibition of human MOLT4 cells assessed as cell growth inhibition incubated for 48 hrs by sulforhodamine B assay; type: functional; details: MOLT-4, 48 h
HT-29 = experiment: Growth inhibition of human HT-29 cells assessed as cell growth inhibition incubated for 48 hrs by sulforhodamine B assay; type: functional; details: HT-29, 48 h
SN12C = experiment: Growth inhibition of human SN12C cells assessed as cell growth inhibition incubated for 48 hrs by sulforhodamine B assay; type: functional
A549 = experiment: Growth inhibition of human A549/ATCC cells assessed as cell growth inhibition incubated for 48 hrs by sulforhodamine B assay; type: functional; details: A549, 48 h
K562 = experiment: Growth inhibition of human K562 cells assessed as cell growth inhibition incubated for 48 hrs by sulforhodamine B assay; type: functional; details: K562, 48 h
SR = experiment: Growth inhibition of human SR cells assessed as cell growth inhibition incubated for 48 hrs by sulforhodamine B assay; type: functional
COLO 205 = experiment: Antiproliferative activity against human COLO205 cells assessed as reduction in cell viability; type: functional, cell-based
RPMI-8226 = experiment: Growth inhibition of human RPMI8226 cells assessed as cell growth inhibition incubated for 48 hrs by sulforhodamine B assay; type: functional; details: RPMI-8226, 48 h
SK-MEL-2 = experiment: Growth inhibition of human SK-MEL-2 cells assessed as cell growth inhibition incubated for 48 hrs by sulforhodamine B assay; type: functional; details: SK-MEL-2, 48 h
SW-620 = experiment: Growth inhibition of human SW620 cells assessed as cell growth inhibition incubated for 48 hrs by sulforhodamine B assay; type: functional; details: SW-620, 48 h
RXF 393 = experiment: Growth inhibition of human RXF393 cells assessed as cell growth inhibition incubated for 48 hrs by sulforhodamine B assay; type: functional; details: RXF 393, 48 h
MDA-MB-468 = experiment: Growth inhibition of human MDA-MB-468 cells assessed as cell growth inhibition incubated for 48 hrs by sulforhodamine B assay; type: functional; details: MDA-MB-468, 48 h
[1] = target: Protein cereblon/Bromodomain-containing protein 4/Cullin-4A (Homo sapiens) (UniProt O60885+Q96SW2+Q13619); experiment: Protac activity at cereblon/cullin4A/BRD4 in human MV4-11 cells assessed as induction of BRD4 degradation at 10 nM measured after 18 hrs by Western blot analysis; type: cell-based
DU-145 = experiment: Antiproliferative activity against human DU145 cells assessed as reduction in cell viability; type: functional, cell-based
T47D = experiment: Growth inhibition of human T47D cells assessed as cell growth inhibition incubated for 48 hrs by sulforhodamine B assay; type: functional
OVCAR-3 = experiment: Growth inhibition of human OVCAR3 cells assessed as cell growth inhibition incubated for 48 hrs by sulforhodamine B assay; type: functional; details: OVCAR-3, 48 h
NCI-H522 = experiment: Growth inhibition of human NCI-H522 cells assessed as cell growth inhibition incubated for 48 hrs by sulforhodamine B assay; type: functional; details: NCI-H522, 48 h
HL-60(TB) = experiment: Growth inhibition of human HL-60(TB) cells assessed as cell growth inhibition incubated for 48 hrs by sulforhodamine B assay; type: functional; details: HL-60, 48 h
LOX IMVI = experiment: Growth inhibition of human LOXIMVI cells assessed as cell growth inhibition incubated for 48 hrs by sulforhodamine B assay; type: functional
LNCaP-Clone-FGC = experiment: Antiproliferative activity against human LNCaP-FGC cells assessed as reduction in cell viability; type: functional, cell-based
MV4-11 = experiment: Antiproliferative activity against human MV4-11 cells assessed as reduction in cell viability measured after 48 hrs by CellTiter-Glo assay; type: functional, cell-based; details: MV4-11, 48 h
LNCaP = experiment: Antiproliferative activity against human LNCAP cells assessed as reduction in cell viability; type: functional, cell-based
Malme-3M = experiment: Growth inhibition of human MALME-3M cells assessed as cell growth inhibition incubated for 48 hrs by sulforhodamine B assay; type: functional
NCI-H322M = experiment: Growth inhibition of human NCI-H322M cells assessed as cell growth inhibition incubated for 48 hrs by sulforhodamine B assay; type: functional
NCI-H358 = experiment: Antiproliferative activity against human NCI-H358 cells assessed as reduction in cell viability; type: functional, cell-based
PC-3 = experiment: Growth inhibition of human PC3 cells assessed as cell growth inhibition incubated for 48 hrs by sulforhodamine B assay; type: functional; details: PC-3, 48 h
MOLM-13 = experiment: Antiproliferative activity against human MOLM13 cells assessed as reduction in cell viability measured after 48 hrs by CellTiter-Glo assay; type: functional, cell-based; details: MOLM-13, 48 h
HOP-62 = experiment: Growth inhibition of human HOP62 cells assessed as cell growth inhibition incubated for 48 hrs by sulforhodamine B assay; type: functional; details: HOP-62, 48 h
MDA-MB-231 = experiment: Growth inhibition of human MDA-MB-231 cells assessed as cell growth inhibition incubated for 48 hrs by sulforhodamine B assay; type: functional; details: MDA-MB-231, 48 h
MDA-MB-435 = experiment: Growth inhibition of human MDA-MB-435 cells assessed as cell growth inhibition incubated for 48 hrs by sulforhodamine B assay; type: functional; details: MDA-MB-435, 48 h
[2] = target: Protein cereblon/Bromodomain-containing protein 3/Cullin-4A (Homo sapiens, UniProt Q15059+Q96SW2+Q13619); experiment: Protac activity at cereblon/cullin4A/BRD3 in human MV4-11 cells assessed as induction of BRD3 degradation at 50 nM measured after 18 hrs by Western blot analysis; type: cell-based; details: mv4-11, 18 h, 0.05 µM
Sequence of Protein cereblon/Bromodomain-containing protein 3/Cullin-4A (Q15059 whole entry): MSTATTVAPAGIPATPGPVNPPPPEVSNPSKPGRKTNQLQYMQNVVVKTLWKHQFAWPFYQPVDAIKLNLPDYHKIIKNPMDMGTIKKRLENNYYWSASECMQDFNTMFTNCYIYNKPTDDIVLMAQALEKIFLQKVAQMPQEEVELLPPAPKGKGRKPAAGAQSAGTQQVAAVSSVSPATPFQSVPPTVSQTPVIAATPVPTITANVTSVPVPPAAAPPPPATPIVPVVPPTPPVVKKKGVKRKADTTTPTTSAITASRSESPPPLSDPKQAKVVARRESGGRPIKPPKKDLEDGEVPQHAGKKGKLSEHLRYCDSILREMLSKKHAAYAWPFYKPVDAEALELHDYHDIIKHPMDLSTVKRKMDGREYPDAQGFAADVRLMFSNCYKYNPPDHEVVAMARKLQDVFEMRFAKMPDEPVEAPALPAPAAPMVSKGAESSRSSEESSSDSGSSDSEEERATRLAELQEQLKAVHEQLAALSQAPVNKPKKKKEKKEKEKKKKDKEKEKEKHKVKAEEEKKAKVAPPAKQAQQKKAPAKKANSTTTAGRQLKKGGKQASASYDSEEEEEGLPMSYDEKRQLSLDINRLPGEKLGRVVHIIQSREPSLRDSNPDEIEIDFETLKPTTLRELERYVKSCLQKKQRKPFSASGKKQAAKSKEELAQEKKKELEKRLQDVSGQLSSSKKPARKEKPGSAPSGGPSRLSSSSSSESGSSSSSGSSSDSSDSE
Sequence of Protein cereblon/Bromodomain-containing protein 3/Cullin-4A (Q96SW2 whole entry): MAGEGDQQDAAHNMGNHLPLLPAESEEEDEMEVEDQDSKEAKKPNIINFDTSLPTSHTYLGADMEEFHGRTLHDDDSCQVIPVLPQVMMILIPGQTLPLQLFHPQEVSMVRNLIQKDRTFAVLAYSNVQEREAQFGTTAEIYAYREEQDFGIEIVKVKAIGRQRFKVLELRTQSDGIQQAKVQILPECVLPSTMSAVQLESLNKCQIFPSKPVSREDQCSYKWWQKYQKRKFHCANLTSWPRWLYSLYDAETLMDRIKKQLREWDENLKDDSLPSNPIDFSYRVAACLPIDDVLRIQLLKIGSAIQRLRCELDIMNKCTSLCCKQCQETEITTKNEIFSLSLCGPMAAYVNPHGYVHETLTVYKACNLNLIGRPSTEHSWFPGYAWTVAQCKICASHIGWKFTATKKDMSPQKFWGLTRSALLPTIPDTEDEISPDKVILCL
Sequence of Protein cereblon/Bromodomain-containing protein 3/Cullin-4A (Q13619 whole entry): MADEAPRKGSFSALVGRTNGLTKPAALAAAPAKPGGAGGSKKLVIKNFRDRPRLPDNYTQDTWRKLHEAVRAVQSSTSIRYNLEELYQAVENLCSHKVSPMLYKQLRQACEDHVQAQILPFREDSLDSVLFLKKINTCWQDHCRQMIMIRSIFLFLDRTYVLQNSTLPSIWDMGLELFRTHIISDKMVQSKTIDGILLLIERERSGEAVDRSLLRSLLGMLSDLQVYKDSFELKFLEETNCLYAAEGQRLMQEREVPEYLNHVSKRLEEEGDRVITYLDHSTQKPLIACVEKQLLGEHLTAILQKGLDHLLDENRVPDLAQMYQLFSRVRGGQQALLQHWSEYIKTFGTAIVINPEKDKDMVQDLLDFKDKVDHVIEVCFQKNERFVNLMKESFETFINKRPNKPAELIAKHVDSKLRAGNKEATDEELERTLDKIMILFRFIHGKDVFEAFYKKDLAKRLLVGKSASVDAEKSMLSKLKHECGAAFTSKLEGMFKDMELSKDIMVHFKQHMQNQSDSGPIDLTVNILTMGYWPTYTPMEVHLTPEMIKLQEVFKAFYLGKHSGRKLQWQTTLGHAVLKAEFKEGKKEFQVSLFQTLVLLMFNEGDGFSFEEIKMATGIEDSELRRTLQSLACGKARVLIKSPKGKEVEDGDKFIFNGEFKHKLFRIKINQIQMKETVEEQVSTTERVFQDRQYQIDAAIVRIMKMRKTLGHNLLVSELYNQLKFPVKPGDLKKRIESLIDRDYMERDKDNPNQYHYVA

SK-MEL-28 = experiment: Growth inhibition of human SK-MEL-28 cells assessed as cell growth inhibition incubated for 48 hrs by sulforhodamine B assay; type: functional; details: SK-MEL-28, 48 h
OVCAR-4 = experiment: Growth inhibition of human OVCAR4 cells assessed as cell growth inhibition incubated for 48 hrs by sulforhodamine B assay; type: functional; details: OVCAR-4, 48 h
TT = experiment: Antiproliferative activity against human TT cells assessed as reduction in cell viability; type: functional, cell-based
786-0 = experiment: Growth inhibition of human 786-0 cells assessed as cell growth inhibition incubated for 48 hrs by sulforhodamine B assay; type: functional; details: 786-0, 48 h

## COc1ccccc1S(=O)(=O)Nc1ccc2c3c(cc(CCC(=O)NCCCCNc4cccc5c4C(=O)N(C4CCC(=O)NC4=O)C5=O)cc13)C(=O)N2C (configuration not stated)
CWR22R
  IC50: 81 nM
KM12
  GI50: 675 nM
MOLT-4
  GI50: 31 nM
HT-29
  GI50: 3770 nM
SN12C
  GI50: 447 nM
A549
  GI50: 5260 nM
K562
  GI50: 422 nM
SR
  GI50: 122 nM
COLO 205
  IC50: 156 nM
RPMI-8226
  GI50: 683 nM
SK-MEL-2
  GI50: 1120 nM
SW-620
  GI50: 249 nM
RXF 393
  GI50: 864 nM
MDA-MB-468
  GI50: 20 nM
[1]
  Activity: Active
DU-145
  IC50: 3660 nM
T47D
  GI50: 34 nM
OVCAR-3
  GI50: 1830 nM
NCI-H522
  GI50: 2740 nM
HL-60(TB)
  GI50: 22 nM
LOX IMVI
  GI50: 3970 nM
LNCaP-Clone-FGC
  IC50: 910 nM
MV4-11
  IC50: 12.2 nM
LNCaP
  IC50: 620 nM
Malme-3M
  GI50: 161 nM
NCI-H322M
  GI50: 355 nM
NCI-H358
  IC50: 1380 nM
PC-3
  GI50: 248 nM
MOLM-13
  IC50: 52 nM
HOP-62
  GI50: 416 nM
MDA-MB-231
  GI50: 32 nM
MDA-MB-435
  GI50: 819 nM
[2]
  Activity: Not Active
SK-MEL-28
  GI50: 891 nM
OVCAR-4
  GI50: 259 nM
TT
  IC50: 37.4 nM
786-0
  GI50: 2110 nM
